Test results published in article PMC12155096 (International Journal of Molecular Sciences, 2025).
Where a name gives a salt, the structure may show the parent alone. Read-outs that look alike come from different tables or passages of the source.

Experiments:
[1] = biological target: T1, human CYP2C19 (Homo sapiens, UniProt P33261); experiment: biochemical; settings: for AC50: CYP2C19 AC50 (half-maximal activity concentration)
[2] = biological target: T2, human CYP2C9 (Homo sapiens, UniProt P11712); experiment: biochemical; settings: for AC50: CYP2C9 AC50 (half-maximal activity concentration)
[3] = biological target: T3, human CYP2D6 (Homo sapiens, UniProt P10635); experiment: biochemical; settings: for AC50: CYP2D6 AC50 (half-maximal activity concentration)
[4] = biological target: Photinus pyralis (firefly) luciferase (Photinus pyralis, UniProt P08659); experiment: biochemical; assay type: biochemical
[5] = biological target: T4, human CYP1A2 (Homo sapiens, UniProt P05177); experiment: biochemical; settings: for AC50: CYP1A2 AC50 (half-maximal activity concentration)
T4 sequence (P05177 1-516): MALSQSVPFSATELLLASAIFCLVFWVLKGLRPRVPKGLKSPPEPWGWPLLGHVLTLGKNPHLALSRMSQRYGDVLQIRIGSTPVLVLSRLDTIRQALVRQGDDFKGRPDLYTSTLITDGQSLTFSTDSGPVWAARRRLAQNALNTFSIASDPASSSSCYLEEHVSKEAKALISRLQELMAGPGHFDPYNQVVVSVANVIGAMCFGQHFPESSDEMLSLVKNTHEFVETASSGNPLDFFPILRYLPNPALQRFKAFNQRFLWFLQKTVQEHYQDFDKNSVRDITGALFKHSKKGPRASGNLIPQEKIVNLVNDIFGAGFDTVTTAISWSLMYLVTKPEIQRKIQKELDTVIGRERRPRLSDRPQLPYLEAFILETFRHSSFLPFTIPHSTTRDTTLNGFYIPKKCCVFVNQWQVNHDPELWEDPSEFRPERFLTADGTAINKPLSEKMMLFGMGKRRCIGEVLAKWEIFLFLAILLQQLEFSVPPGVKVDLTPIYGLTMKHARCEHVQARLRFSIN

[6] = biological target: T2, human CYP2C9
[7] = biological target: T4, human CYP1A2
[8] = biological target: T1, human CYP2C19; settings: human
[9] = biological target: T3, human CYP2D6; settings: human
[10] = biological target: CYP3A4 (Homo sapiens, UniProt P08684)
[11] = CYP2C19 IC50 (half-maximal inhibitory concentration)
[12] = CYP2C9 IC50 (half-maximal inhibitory concentration)
[13] = CYP2D6 IC50 (half-maximal inhibitory concentration)
[14] = CYP1A2 IC50 (half-maximal inhibitory concentration)

T2 sequence (P11712 whole entry): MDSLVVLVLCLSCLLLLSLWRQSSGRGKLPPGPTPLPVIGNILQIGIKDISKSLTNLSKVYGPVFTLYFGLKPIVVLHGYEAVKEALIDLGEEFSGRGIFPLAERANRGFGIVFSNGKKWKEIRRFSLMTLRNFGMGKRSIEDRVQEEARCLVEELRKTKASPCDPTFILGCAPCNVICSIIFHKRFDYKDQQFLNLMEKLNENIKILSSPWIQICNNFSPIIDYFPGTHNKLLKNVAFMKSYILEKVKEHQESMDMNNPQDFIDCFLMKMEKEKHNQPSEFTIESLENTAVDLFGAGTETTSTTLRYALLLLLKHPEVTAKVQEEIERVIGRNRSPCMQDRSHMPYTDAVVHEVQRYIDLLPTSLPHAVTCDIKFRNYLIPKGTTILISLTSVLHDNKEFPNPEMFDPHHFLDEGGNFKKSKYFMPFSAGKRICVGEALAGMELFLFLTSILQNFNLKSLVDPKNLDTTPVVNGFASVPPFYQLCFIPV
Photinus pyralis (firefly) luciferase, sequence (P08659 whole entry): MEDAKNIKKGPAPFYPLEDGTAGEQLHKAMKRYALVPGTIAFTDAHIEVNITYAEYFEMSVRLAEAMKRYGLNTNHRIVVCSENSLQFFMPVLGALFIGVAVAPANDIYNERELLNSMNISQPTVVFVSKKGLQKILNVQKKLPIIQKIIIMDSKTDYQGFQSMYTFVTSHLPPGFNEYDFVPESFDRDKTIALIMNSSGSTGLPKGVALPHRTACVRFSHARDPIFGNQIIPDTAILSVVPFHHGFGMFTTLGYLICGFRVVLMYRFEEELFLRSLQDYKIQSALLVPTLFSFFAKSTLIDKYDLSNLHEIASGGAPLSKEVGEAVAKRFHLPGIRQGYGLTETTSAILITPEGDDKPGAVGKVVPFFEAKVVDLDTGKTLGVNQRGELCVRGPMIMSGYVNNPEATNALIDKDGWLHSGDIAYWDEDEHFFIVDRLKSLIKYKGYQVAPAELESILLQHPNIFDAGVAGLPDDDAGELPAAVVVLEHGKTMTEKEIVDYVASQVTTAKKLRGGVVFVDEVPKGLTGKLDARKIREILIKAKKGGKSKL
T1 sequence (P33261 whole entry): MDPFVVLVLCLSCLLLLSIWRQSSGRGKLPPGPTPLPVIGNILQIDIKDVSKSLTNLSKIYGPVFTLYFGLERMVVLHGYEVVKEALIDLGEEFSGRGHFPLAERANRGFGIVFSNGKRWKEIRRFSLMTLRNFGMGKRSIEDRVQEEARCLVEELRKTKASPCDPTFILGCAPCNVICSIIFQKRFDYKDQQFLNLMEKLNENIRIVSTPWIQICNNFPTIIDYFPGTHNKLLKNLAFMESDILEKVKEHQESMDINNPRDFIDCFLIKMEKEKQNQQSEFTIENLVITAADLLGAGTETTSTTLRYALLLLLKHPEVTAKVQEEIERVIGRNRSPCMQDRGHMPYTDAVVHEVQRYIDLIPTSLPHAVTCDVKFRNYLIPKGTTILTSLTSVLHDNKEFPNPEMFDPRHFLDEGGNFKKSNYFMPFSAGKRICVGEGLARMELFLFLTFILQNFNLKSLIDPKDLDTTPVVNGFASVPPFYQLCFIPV
T3 sequence (P10635 whole entry): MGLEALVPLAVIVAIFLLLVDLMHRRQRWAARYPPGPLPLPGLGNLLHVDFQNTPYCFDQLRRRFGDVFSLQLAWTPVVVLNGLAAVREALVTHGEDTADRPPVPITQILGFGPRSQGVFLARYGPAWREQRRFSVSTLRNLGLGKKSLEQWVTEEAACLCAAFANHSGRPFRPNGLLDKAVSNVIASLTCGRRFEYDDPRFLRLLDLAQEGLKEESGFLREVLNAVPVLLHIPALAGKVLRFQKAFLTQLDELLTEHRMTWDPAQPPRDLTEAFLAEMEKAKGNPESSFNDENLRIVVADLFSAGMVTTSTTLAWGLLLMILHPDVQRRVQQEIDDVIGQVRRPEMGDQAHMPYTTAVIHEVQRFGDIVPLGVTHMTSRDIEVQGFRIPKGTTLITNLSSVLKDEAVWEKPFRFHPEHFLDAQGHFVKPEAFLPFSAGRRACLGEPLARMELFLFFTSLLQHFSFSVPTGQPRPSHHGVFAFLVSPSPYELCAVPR
CYP3A4, sequence (P08684 whole entry): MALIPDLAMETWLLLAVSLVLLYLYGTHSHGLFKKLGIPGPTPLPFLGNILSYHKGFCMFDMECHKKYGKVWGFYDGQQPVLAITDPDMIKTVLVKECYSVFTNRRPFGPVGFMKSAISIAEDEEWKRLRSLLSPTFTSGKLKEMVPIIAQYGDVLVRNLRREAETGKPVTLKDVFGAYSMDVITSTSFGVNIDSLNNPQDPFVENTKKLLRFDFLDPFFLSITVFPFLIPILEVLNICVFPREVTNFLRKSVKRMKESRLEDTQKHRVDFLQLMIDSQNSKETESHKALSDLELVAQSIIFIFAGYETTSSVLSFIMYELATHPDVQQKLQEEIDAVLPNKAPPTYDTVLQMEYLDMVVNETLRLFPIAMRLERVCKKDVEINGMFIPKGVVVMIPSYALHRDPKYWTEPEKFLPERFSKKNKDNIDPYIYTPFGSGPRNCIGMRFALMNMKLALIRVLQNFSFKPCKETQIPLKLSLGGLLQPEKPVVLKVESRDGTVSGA

Compound | IC50 [2] | IC50 [3] | Luciferase IC50 [4] | IC50 ([1]; CYP2C19 IC50) | IC50 ([3]; CYP2D6 IC50) | IC50 ([5]; CYP1A2 IC50) | IC50 [4] | also measured
Cl[C@H]1[C@H](Cl)[C@@H](Cl)[C@H](Cl)[C@@H](Cl)[C@H]1Cl [delta-Hexachlorocyclohexane] |  |  |  |  |  |  |  | AC50 [1]: 2.27 µM; IC50 [1, 11]: 2.27 µM; AC50 [2]: 25.6 µM; IC50 [2, 12]: 25.6 µM; AC50 [3]: 48.8 µM; IC50 [3, 13]: 48.8 µM; Luciferase IC50 (half-maximal inhibitory concentration) [4]: Inactive; AC50 [5]: 35.7 µM; IC50 [5, 14]: 35.7 µM
Nc1ccc(C(=O)N2CC3CC(CN(Cc4ccccc4)C3)C2)cc1 [Ambasilide] | 22.7 µM | 20.1 µM | Inactive |  |  |  |  | IC50 [1]: 30 µM; IC50 [5]: 30.9 µM
Cc1cc(O)c2ccccc2c1O [Menadiol] |  |  | Inactive | 13.4 µM | 19.3 µM | 0.8 µM |  | IC50 ([2]; CYP2C9 IC50): 12.2 µM
O=[N+]([O-])c1c2ccccc2cc2ccccc12 [9-Nitroanthracene] |  |  |  |  |  |  | 22.6 µM | IC50 [1, 11]: 19.9 µM; CYP2C9 Efficacy (in parenthesis) ([6]; human): 13.51 ± 1.21 (-86 ± 11) %; IC50 [2, 12]: 13.5 µM; CYP1A2 Efficacy (in parenthesis) ([7]; human): 0.27 ± 0.04 (-96 ± 5) %; IC50 [3, 13]: 34 µM; CYP2C19 Efficacy (in parenthesis) [8]: 19.86 ± 2.28 (-116 ± 4) %; CYP2D6 Efficacy (in parenthesis) [9]: 34.03 ± 2.33 (-39 ± 13) %; IC50 [5, 14]: 0.27 µM
CCOC(=O)c1c(N)sc2c1CCN(Cc1ccccc1)C2 [Tinoridine] | 6.91 ± 5.97 µM | 0.02 ± 0.01 µM | Inactive |  |  |  |  | IC50 [1]: 0.71 ± 0.38 µM; IC50 [5]: 16.1 ± 1.09 µM
COc1nn(CSP(=S)(OC)OC)c(=O)s1 [Methidathion] | 6.58 µM | 35.7 µM |  | 0.8 µM |  | 6.58 µM | 44 µM | 
Nc1ccc2c(c1)CN1C(=O)c3ccccc3C1=N2 [Daniquidone] |  |  |  |  |  |  | 0.36 µM | IC50 [1, 11]: 2.8 µM; IC50 [2, 12]: 5.05 µM; IC50 [3, 13]: 4.39 µM; IC50 [5, 14]: 0.67 µM
COP(=S)(OC)Oc1ccc(SC)c(C)c1 [Fenthion] | 6.1 µM | 37.2 µM |  | 0.91 µM |  | 2.53 µM | 44.8 µM | 
CN(C)[C@@H](CCOc1cccc2ccccc12)c1ccccc1 [Dapoxetine] | 16.8 ± 2.32 µM | 0.98 ± 0.11 µM | Inactive |  |  |  |  | IC50 [1]: 1.21 ± 0.3 µM; IC50 [5]: 5.87 ± 1.73 µM
CN1CCC(N(Cc2cccs2)c2ccccc2)CC1 [Thenalidine] |  |  | Inactive | 36.8 µM | 0.53 µM |  |  | CYP2C9 IC50 [6]: Inactive; CYP1A2 IC50 [7]: Inactive; AC50 [3]: 0.53 µM
c1ccc2c(c1)Nc1ccccc1S2 [Phenothiazine] |  |  |  |  |  |  | 58.1 µM | IC50 [1, 11]: 4.3 µM; IC50 [2, 12]: 40.4 µM; IC50 [3, 13]: 30.8 µM; IC50 [5, 14]: 0.97 µM
Cc1cccc(Cc2c[nH]cn2)c1C [Detomidine hydrochloride] |  |  | Inactive | 1.96 µM | 2.37 µM | 1.15 µM |  | IC50 ([2]; CYP2C9 IC50): 0.41 µM
CCCCCCCCCCCCCCCC[N+](C)(C)CC [Ethylhexadecyldimethylammonium bromide] | 83.1 ± 5.63 µM | 0.61 ± 0.04 µM | Inactive |  |  |  |  | IC50 [1]: 89.6 µM; IC50 [5]: 74.4 ± 9.49 µM
CO[C@]12C[C@@H](COC(=O)c3cncc(Br)c3)CN(C)[C@@H]1Cc1cn(C)c3cccc2c13 [Nicergoline] |  |  | Inactive | 11.8 µM | 0.07 µM | 22 µM |  | CYP2C9 IC50 [6]: Inactive
CN(C)c1ccc(N=NS(=O)(=O)O)cc1 [Fenaminosulf] | 7.38 µM | 12.2 µM |  |  |  |  | 44.1 µM | IC50 [1]: 1.36 µM; IC50 [5]: 5.75 µM
CCCN1C[C@H](CSC)C[C@@H]2c3cccc4[nH]cc(c34)C[C@H]21 [Pergolide methanesulfonate] |  |  | Inactive | 8.43 µM | 0.15 µM | 6.54 µM |  | IC50 ([2]; CYP2C9 IC50): 6.26 µM
CN1CCCN(C(c2ccccc2)c2ccc(Cl)cc2)CC1 (stereo not drawn) [Homochlorcyclizine] |  |  | Inactive | 26.3 µM | 0.38 µM |  |  | CYP2C9 IC50 [6]: Inactive; CYP1A2 IC50 [7]: Inactive
[O-][n+]1ccccc1SSc1cccc[n+]1[O-] [Dipyrithione] |  |  |  | 0.79 µM | 1.66 µM | 3.2 µM | 0.45 µM | AC50 [1]: 0.79 µM; AC50 [2]: 1.72 µM; IC50 ([2]; CYP2C9 IC50): 1.72 µM; AC50 [3]: 1.66 µM; AC50 [5]: 3.2 µM

Compound | IC50 [2] | IC50 [3] | Luciferase IC50 [4] | IC50 ([1]; CYP2C19 IC50) | IC50 ([3]; CYP2D6 IC50) | IC50 ([5]; CYP1A2 IC50) | IC50 [4] | also measured
CCN(CC)CCOC(=O)C(Cc1cccc2ccccc12)CC1CCCO1 (stereo not drawn) [Nafronyl oxalate] |  |  | Inactive | 7.76 µM | 2.98 µM | 18.2 µM |  | CYP2C9 IC50 [6]: Inactive
O=C(NCCc1c[nH]c2ccccc12)c1cccnc1 [Nicotredole] |  |  |  |  |  |  | 35.1 µM | IC50 [1, 11]: 8.39 µM; IC50 [2, 12]: 15.1 µM; IC50 [3, 13]: 31 µM; IC50 [5, 14]: 14.6 µM
CN1C[C@H](C(=O)N[C@]2(C)O[C@@]3(O)[C@@H]4CCCN4C(=O)[C@H](Cc4ccccc4)N3C2=O)C=C2c3cccc4[nH]cc(c34)C[C@H]21 [Ergotamine D-tartrate] |  |  |  |  |  |  | 42.1 µM | IC50 [1, 11]: 37.4 µM; IC50 [2, 12]: 16.5 µM; IC50 [3, 13]: 31.3 µM; IC50 [5, 14]: 22.6 µM
c1cc2ccc3cccc4ccc(c1)c2c34 [Pyrene] |  |  | Inactive | 24.3 µM | 47.1 µM | 0.64 µM |  | IC50 ([2]; CYP2C9 IC50): 60.5 µM
COCC(=O)O[C@]1(CCN(C)CCCc2nc3ccccc3[nH]2)CCc2cc(F)ccc2[C@@H]1C(C)C [Mibefradil dihydrochloride] |  |  | Inactive |  | 0.53 µM |  |  | IC50 [1]: 38.9 µM; CYP2C9 IC50 [6]: Inactive; CYP1A2 IC50 [7]: Inactive
O=c1cc(-c2ccccc2)oc2ccccc12 [Flavone] | 14.6 µM | 62.5 ± 38.1 µM |  |  |  |  | 21.6 µM | IC50 [1]: 23.2 ± 7.47 µM; IC50 [5]: 0.26 µM
Nc1c(Cl)c(Cl)c(Cl)c(Cl)c1Cl [Pentachloroaniline] | 51.5 µM | 75.3 µM | Inactive | 44 µM |  | 0.85 µM |  | 
CN1CCC(=C2c3ccccc3CCc3sccc32)CC1 [Pizotifen] |  |  | Inactive | 8.71 µM | 0.96 µM |  |  | AC50 [1]: 8.71 µM; CYP2C9 IC50 [6]: Inactive; CYP1A2 IC50 [7]: Inactive; AC50 [3]: 0.96 µM
CC(CC1c2ccccc2CCc2ccccc21)CN(C)C (stereo not drawn) [Butriptyline] |  |  |  | 8.39 µM | 0.97 µM |  | 8.71 µM | CYP2C9 IC50 [6]: Inactive; CYP1A2 IC50 [7]: Inactive
CCOP(=S)(OCC)O/N=C(\C#N)c1ccccc1 [Phoxim] | 2.04 µM | 22.5 µM | Inactive | 0.28 µM |  | 0.99 µM |  | 
CCN(CC)CCOC(=O)C(c1ccccc1)C1CCCCC1 (stereo not drawn) [Drofenine hydrochloride] |  |  | Inactive | 18.8 µM | 1.19 µM | 5.85 µM |  | IC50 ([2]; CYP2C9 IC50): 26 µM
CCOC(=O)CC(SP(=S)(OC)OC)C(=O)OCC (stereo not drawn) [Malathion] |  |  |  | 0.54 µM | 58.1 µM | 2.12 µM | 37 µM | IC50 ([2]; CYP2C9 IC50): 1.78 µM
CCc1cccc(N(C)C(N)=Nc2cccc3ccccc23)c1 [Aptiganel hydrochloride] |  |  | Inactive |  | 0.14 µM |  |  | CYP1A2 IC50 [7]: Inactive; CYP3A4 IC50 [10]: Inactive
CCC1(c2cnc[nH]2)Cc2ccccc2C1 [Atipamezole] | 1.21 ± 0.3 µM | 0.87 ± 0.1 µM | Inactive |  |  |  |  | IC50 [1]: 1.42 ± 0.4 µM; IC50 [5]: 11 ± 2.84 µM
CN(C/C=C/C#CC(C)(C)C)Cc1cccc2ccccc12 [terbinafine, reference compound] | 15.5 µM | 0.4 µM | Inactive |  |  |  |  | IC50 [1]: 31.9 µM; IC50 [5]: 16.8 µM
CC[n+]1c(-c2ccccc2)c2cc(N)ccc2c2ccc(N)cc21 [Ethidium bromide] |  |  | Inactive | 13.1 µM | 0.93 µM | 9.62 µM |  | IC50 ([2]; CYP2C9 IC50): 47.7 µM
CC1=C(C)C(=O)C(CCCCC#CCCCC#CCO)=C(C)C1=O [Docebenone] |  |  | Inactive | 11.4 µM | 25.8 µM | 3.27 µM |  | IC50 ([2]; CYP2C9 IC50): 5.22 µM
